Key:
Plasma Kallikrein [1] = molecular target: T1, Plasma Kallikrein (Homo sapiens, UniProt P03952); experiment: Plasma kallikrein activity in pooled human plasma; type: biochemical; parameters: Plasma Kallikrein activity was also measured in pooled human plasma; from tissue; host or cells: pooled human plasma; details: Z-FR-AMC substrate, activated with 10% Actin FS solution, 10 minutes, read-out: Pooled Human Plasma PKal IC50
Experimental: (§1) Plasma kallikrein protease inhibition assay. Two methods for determining the IC50 of a test compound against Plasma Kallikrein are provided.
Second, Plasma Kallikrein activity was also measured in pooled human plasma. First, a 10% Actin FS solution was prepared in assay buffer. Each test compound was dissolved in DMSO and delivered to the reaction mixture along with Z-FR-AMC substrate and pooled human plasma. The multi-well reaction plate was incubated for five minutes at room temperature. To initiate the reaction, the 10% Actin FS solution was added to each well, and kinetic measurements were taken at Ex/Em at 355/460 nm. The fluorescence signal was recorded every 30 seconds for a total of 10 minutes.

Plasma Kallikrein [2] = molecular target: T1, Plasma Kallikrein; experiment: Plasma kallikrein protease inhibition assay, purified enzyme; type: biochemical; parameters: NS0-derived Gly20-Ala638, with a C-terminal 60-His tag; 60-His (so in the source) (C); purchased R&D Systems 2497-SE; host or cells: Mouse myeloma cell line, NS0; details: 10 μM Z-FR-AMC substrate, 20-minute pre-incubation, pH 8.0/8.5, room temperature, read-out: Purified PKal IC50
Experimental: as §1
In the first method was used a reaction buffer composed of 25 mM Tris-HCl (pH 8.0), 100 mM NaCl (pH 8.5), 0.01% Brij35, and 1% DMSO (final). The enzyme used was Plasma Kallikrein (R&D Systems Cat #2497-SE; Recombinant Human Plasma Kallikrein, expressed in Mouse myeloma cell line, NS0-derived Gly20-Ala638, with a C-terminal 60-His tag. MW=70 kDa).
The enzyme was activated by dilution to 200 μg/mL in activation buffer (100 mM Tris, 10 mM CaCl2, 150 mM NaCl, pH 7.5 (TCN), and then combined with an equal volume of 20 μg/mL thermolysin to form a reaction buffer. Each test compound was then dissolved in DMSO and delivered into the reaction buffer. The reaction was initiated by delivering a substrate solution containing 10 μM Z-FR-AMC (Enzo Cat #P-139; AMC: 7-Amino-4-methylcoumarin) into the reaction well after a 20-minute pre-incubation period.
Measurement was conducted with En Vision (PE) with excitation and emission wavelengths of 355 nm and 460 nm, respectively. […]. The enzyme activities were monitored every 5 minutes as a time-course measurement of the increase in signal from fluorescently labeled peptide substrate for 120 minutes at room temperature.
Data was analyzed by taking slope*(signal/time) of the linear portion of measurements. Slope was calculated using Excel, and curve fits were performed using Prism software.

T1 sequence (P03952 391-638 limits assumed): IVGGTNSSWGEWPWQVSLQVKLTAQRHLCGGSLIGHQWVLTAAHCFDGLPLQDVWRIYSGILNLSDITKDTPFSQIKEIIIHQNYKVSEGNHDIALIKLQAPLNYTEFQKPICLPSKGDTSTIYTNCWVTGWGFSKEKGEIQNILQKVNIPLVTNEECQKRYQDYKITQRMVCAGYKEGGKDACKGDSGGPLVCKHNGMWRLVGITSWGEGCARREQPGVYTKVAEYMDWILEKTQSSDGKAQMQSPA
T1 sequence (P03952 20-390 partner limits assumed): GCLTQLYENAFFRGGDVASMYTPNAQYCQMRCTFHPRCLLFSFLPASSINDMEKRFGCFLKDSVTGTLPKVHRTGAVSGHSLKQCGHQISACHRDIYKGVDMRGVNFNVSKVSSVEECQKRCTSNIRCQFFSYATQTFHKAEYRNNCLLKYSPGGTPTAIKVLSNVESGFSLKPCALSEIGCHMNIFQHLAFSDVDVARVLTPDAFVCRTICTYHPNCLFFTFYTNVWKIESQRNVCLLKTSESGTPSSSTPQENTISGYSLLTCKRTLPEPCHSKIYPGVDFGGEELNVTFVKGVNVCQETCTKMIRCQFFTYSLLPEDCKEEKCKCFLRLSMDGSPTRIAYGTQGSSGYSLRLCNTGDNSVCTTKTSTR

Row | IC50 (Plasma Kallikrein [1]) [nM] | IC50 (Plasma Kallikrein [2]) [nM] | Structure (SMILES)
1 | < 100 | 1 to 10 | N=C(N)c1ccc(CNC(=O)c2cnn(Cc3ccc(CO)cc3)c2)cc1 [Example 2, N-(4-carbamimidoylbenzyl)-1-(4-(hydroxymethyl)benzyl)-1H-pyrazole-4-carboxamide]
2 |  | 1 to 10 | CC(C#N)c1ccc(Cn2cc(C(=O)NCc3ccc(C(=N)N)cc3)cn2)cc1 (stereo not drawn) [Example 5, N-(4-carbamimidoylbenzyl)-1-(4-(1-cyanoethyl)benzyl)-1H-pyrazole-4-carboxamide]
3 |  | 1 to 10 | N#CCc1ccc(Cc2cc(C(=O)NCc3ccc(C(=N)N)cc3)on2)cc1 [Example 10, N-(4-carbamimidoylbenzyl)-3-(4-(cyanomethyl)benzyl) isoxazole-5-carboxamide]
4 |  | 1 to 10 | N#CCc1ccc(Cc2cc(C(=O)NCc3ccc(C(=N)N)cc3)sn2)cc1 [Example 11]
5 | < 100 | < 1 | N#Cc1ccc(-c2ccc(Cn3cc(C(=O)NCc4ccc(C(=N)N)cc4)cn3)cc2)cc1 [Example 13, N-(4-carbamimidoylbenzyl)-1-((4′-cyano-[1,1′-biphenyl]-4-yl)methyl)-1H-pyrazole-4-carboxamide]
6 | 100 to 1000 | < 1 | N#Cc1ccc(Cc2ccc(Cn3cc(C(=O)NCc4ccc(C(=N)N)cc4)cn3)cc2)cc1 [Example 14, N-(4-carbamimidoylbenzyl)-1-(4-(4-cyanobenzyl)benzyl)-1H-pyrazole-4-carboxamide]
7 | < 100 | < 1 | N#Cc1ccn(-c2ccc(Cn3cc(C(=O)NCc4ccc(C(=N)N)cc4)cn3)cc2)c1 [Example 25, N-(4-carbamimidoylbenzyl)-1-(4-(3-cyano-1H-pyrrol-1-yl)benzyl)-1H-pyrazole-4-carboxamide]
8 | > 1000 | > 100 | CC(C)(C#N)c1ccc(Cn2cc(C(=O)NCc3cc(F)c(C(=N)N)c(F)c3)cn2)cc1 [Example 44, N-(4-carbamimidoyl-3,5-difluorobenzyl)-1-(4-(2-cyanopropan-2-yl)benzyl)-1H-pyrazole-4-carboxamide]
9 | < 100 | 1 to 10 | COCCc1cccc(Cn2cc(C(=O)NCc3ccc(C(=N)N)cc3)cn2)c1 [Example 69, N-(4-carbamimidoylbenzyl)-1-(3-(2-methoxyethyl)benzyl)-1H-pyrazole-4-carboxamide]
10 | 100 to 1000 | 10 to 100 | N#CCc1ccccc1Cn1cc(C(=O)NCc2ccc(C(=N)N)cc2)cn1 [Example 70, N-(4-carbamimidoylbenzyl)-1-(2-(cyanomethyl)benzyl)-1H-pyrazole-4-carboxamide]
11 | < 100 | < 1 | COCc1ccc(Cn2cc(C(=O)NCc3ccc(C(=N)N)cc3)cn2)cc1 [Example 71, N-(4-carbamimidoylbenzyl)-1-(4-(methoxymethyl)benzyl)-1H-pyrazole-4-carboxamide]
12 | 100 to 1000 | 10 to 100 | N#CCc1ccc(Cn2cc(C(=O)NCc3ccc(C(=N)N)c(F)c3)cn2)cc1 [Example 72, N-(4-carbamimidoyl-3-fluorobenzyl)-1-(4-(cyanomethyl)benzyl)-1H-pyrazole-4-carboxamide]
13 | < 100 | 1 to 10 | COCCc1ccc(Cn2cc(C(=O)NCc3ccc(C(=N)N)c(F)c3)cn2)cc1 [Example 73, N-(4-carbamimidoyl-3-fluorobenzyl)-1-(4-(2-methoxyethyl)benzyl)-1H-pyrazole-4-carboxamide]
14 | 100 to 1000 | 1 to 10 | CNC(=O)Cc1ccc(Cn2cc(C(=O)NCc3ccc(C(=N)N)c(F)c3)cn2)cc1 [Example 74, N-(4-carbamimidoyl-3-fluorobenzyl)-1-(4-(2-(methylamino)-2-oxoethyl)benzyl)-1H-pyrazole-4-carboxamide]
15 | > 1000 | > 100 | COCc1c(C(=O)NCc2ccc(C(=N)N)c(F)c2)cnn1Cc1ccc(CC#N)cc1 [Example 75, N-(4-carbamimidoyl-3-fluorobenzyl)-1-(4-(cyanomethyl)benzyl)-5-(methoxymethyl)-1H-pyrazole-4-carboxamide]
16 | < 100 | < 1 | Cc1c(C(=O)NCc2ccc(C(=N)N)cc2)cnn1Cc1ccc(C(C)(C)C#N)cc1 [Example 81, N-(4-carbamimidoylbenzyl)-1-(4-(2-cyanopropan-2-yl)benzyl)-5-methyl-1H-pyrazole-4-carboxamide]
17 | < 100 | 10 to 100 | COCc1c(C(=O)NCc2ccc(C(=N)N)cc2)cnn1Cc1ccc(C(C)(C)C#N)cc1 [Example 82, N-(4-carbamimidoylbenzyl)-1-(4-(2-cyanopropan-2-yl)benzyl)-5-(methoxymethyl)-1H-pyrazole-4-carboxamide]
18 | 100 to 1000 | 10 to 100 | CC(C)(C#N)c1ccc(Cn2ncc(C(=O)NCc3ccc(C(=N)N)cc3)c2C2CC2)cc1 [Example 83, N-(4-carbamimidoylbenzyl)-1-(4-(2-cyanopropan-2-yl)benzyl)-5-cyclopropyl-1H-pyrazole-4-carboxamide]
19 | > 1000 | > 100 | CCCc1c(C(=O)NCc2ccc(C(=N)N)cc2)ncn1Cc1ccc(C(C)(C)C#N)cc1 [Example 84, N-(4-carbamimidoylbenzyl)-1-(4-(2-cyanopropan-2-yl)benzyl)-5-propyl-1H-imidazole-4-carboxamide]
20 | 100 to 1000 | 10 to 100 | COCc1c(C(=O)NCc2ccc(C(=N)N)cc2)cnn1Cc1ccc(CC#N)cc1 [Example 85, N-(4-carbamimidoylbenzyl)-1-(4-(cyanomethyl)benzyl)-5-(methoxymethyl)-1H-pyrazole-4-carboxamide]
21 | 100 to 1000 | 10 to 100 | N#CCc1ccc(Cn2ncc(C(=O)NCc3ccc(C(=N)N)cc3)c2C2CC2)cc1 [Example 86, N-(4-carbamimidoylbenzyl)-1-(4-(cyanomethyl)benzyl)-5-cyclopropyl-1H-pyrazole-4-carboxamide]
